In US20100179158A1, “INHIBITORS OF CYCLIC AMP PHOSPHODIESTERASES” (priority 2007, published 2010):

What was measured:
[1] = molecular target: T1, PDE4D3 (Homo sapiens, UniProt Q08499); assay: IC50 on PDE4D3; format: biochemical; details: read-out: IC50, PDE 4D3
T1 construct: targets used in the assays are full-length proteins (as opposed to simply the catalytic domain); expressed in transfected cells; host or cells: Schizosaccharomyces pombe, gene integrated at the cgs2 locus

[2] = molecular target: T2, PDE4A1 (Mus musculus, UniProt O89084); assay: IC50 on PDE4A1; format: biochemical, murine; details: read-out: IC50, PDE 4A1
T2 construct: targets used in the assays are full-length proteins (as opposed to simply the catalytic domain); expressed in transfected cells; host or cells: Schizosaccharomyces pombe, gene integrated at the cgs2 locus
T2 sequence (O89084 1-610 isoform O89084-2): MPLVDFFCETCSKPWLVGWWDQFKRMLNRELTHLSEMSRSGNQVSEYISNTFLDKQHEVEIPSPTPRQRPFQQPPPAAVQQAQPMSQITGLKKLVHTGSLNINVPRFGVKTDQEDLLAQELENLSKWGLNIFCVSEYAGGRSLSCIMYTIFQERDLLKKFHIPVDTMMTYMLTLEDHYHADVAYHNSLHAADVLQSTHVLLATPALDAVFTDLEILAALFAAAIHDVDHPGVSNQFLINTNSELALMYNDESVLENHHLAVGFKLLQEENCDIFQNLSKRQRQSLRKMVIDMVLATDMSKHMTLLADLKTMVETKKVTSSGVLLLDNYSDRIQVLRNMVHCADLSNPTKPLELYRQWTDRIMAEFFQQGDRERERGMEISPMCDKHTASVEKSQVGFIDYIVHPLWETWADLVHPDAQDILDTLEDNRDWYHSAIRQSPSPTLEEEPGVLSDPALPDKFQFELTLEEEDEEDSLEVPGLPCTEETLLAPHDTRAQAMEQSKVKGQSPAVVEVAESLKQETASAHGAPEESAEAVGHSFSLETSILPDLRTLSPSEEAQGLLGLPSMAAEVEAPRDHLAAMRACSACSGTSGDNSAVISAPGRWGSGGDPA

[3] = molecular target: T3, PDE2A (Mus musculus, UniProt Q922S4); assay: cAMP assay in yeast strain LWP371 expressing PDE2A; format: cell-based, murine; details: 20 μM EHNA as compared to 200 μM, one-hour time point
T3 construct: targets used in the assays are full-length proteins (as opposed to simply the catalytic domain); expressed in transfected cells; host or cells: Schizosaccharomyces pombe strains LWP367 and LWP371
T3 sequence (Q922S4 1-939): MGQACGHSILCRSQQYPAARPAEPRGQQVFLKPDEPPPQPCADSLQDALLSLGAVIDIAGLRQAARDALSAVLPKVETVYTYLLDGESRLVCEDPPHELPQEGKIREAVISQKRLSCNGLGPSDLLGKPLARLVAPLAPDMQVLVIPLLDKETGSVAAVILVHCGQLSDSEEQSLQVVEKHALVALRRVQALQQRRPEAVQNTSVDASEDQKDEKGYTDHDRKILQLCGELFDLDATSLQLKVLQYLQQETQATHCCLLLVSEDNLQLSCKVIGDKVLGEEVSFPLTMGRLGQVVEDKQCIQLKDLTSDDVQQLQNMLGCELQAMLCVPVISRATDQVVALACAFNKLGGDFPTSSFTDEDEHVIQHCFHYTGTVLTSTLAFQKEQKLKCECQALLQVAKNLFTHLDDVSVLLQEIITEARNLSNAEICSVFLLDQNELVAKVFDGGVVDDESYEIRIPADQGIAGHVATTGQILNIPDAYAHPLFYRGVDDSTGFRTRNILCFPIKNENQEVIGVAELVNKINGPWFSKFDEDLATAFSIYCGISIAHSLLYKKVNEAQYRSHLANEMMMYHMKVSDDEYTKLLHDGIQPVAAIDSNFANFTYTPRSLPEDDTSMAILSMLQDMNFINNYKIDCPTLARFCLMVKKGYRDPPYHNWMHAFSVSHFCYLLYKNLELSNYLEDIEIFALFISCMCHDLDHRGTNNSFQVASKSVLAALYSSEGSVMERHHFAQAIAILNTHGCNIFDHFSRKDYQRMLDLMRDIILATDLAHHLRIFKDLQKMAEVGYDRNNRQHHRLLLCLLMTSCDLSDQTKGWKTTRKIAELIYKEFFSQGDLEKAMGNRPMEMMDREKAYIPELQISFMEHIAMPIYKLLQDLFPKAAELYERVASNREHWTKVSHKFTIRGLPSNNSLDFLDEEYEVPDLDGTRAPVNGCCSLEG
Procedure: (§1) β-galactosidase assays and characterization of 5FOA-sensitivity were carried out as previously described^10. cAMP assays were performed on exponential phase cells grown in EMM complete medium (3% glucose), using the Assay Designs cAMP EIA kit, according to manufacturer's instructions (Assay Designs, Ann arbor, MI).
(§2) Thus, PDE inhibition can be indirectly quantitated by measuring the effect of a compound on cAMP levels in target yeast strains.

[4] = molecular target: T3, PDE2A; assay: fbp1-lacZ β-galactosidase assay, PDE2A strain LWP367; format: cell-based, murine; details: specific activity per milligram of soluble protein, average ± SD
Procedure: as §1
(§3) The effect of known PDE inhibitors on the expression of the fbp1-lacZ fusion in murine PDE-expressing strains was tested. […] For Table 4 β-galactosidase activity was determined from 3 to 4 independent exponential phase cultures. The average±SD represents specific activity per milligram of soluble protein.

[5] = molecular target: T4, PDE8A (Mus musculus, UniProt O88502); assay: fbp1-lacZ β-galactosidase assay, PDE8A strain DDP13; format: cell-based, murine; details: for β-galactosidase activity, PDE8A strain: specific activity per milligram of soluble protein, average ± SD
T4 construct: targets used in the assays are full-length proteins (as opposed to simply the catalytic domain); expressed in transfected cells; host or cells: Schizosaccharomyces pombe strains DDP13 and CHP1141
T4 sequence (O88502 1-823): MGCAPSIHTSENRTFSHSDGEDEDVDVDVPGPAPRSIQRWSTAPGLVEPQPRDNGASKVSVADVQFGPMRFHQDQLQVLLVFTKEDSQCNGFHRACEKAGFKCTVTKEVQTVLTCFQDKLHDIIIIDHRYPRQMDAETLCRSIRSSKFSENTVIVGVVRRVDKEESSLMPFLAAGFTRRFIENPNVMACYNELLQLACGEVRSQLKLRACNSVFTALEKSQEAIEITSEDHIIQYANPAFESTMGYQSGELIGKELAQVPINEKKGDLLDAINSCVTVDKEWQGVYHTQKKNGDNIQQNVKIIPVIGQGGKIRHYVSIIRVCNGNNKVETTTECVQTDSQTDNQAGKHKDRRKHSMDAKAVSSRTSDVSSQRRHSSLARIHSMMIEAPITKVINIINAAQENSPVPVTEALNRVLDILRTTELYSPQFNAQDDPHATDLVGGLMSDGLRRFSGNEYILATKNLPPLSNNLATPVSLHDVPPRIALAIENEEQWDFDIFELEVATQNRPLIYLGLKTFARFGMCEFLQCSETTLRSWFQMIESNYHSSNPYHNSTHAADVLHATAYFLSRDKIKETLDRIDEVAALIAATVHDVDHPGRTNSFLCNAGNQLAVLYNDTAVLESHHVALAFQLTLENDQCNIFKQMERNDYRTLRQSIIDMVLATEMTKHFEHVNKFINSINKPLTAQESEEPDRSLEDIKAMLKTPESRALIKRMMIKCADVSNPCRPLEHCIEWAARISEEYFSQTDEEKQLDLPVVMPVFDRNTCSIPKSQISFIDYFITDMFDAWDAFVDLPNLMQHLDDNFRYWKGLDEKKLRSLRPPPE
Procedure: as §1, §3

[6] = test system: PDE2A, PDE4A, PDE4B, Cgs2; assay: High throughput 5FOA growth screens of bioactive libraries; format: cell-based, murine; Schizosaccharomyces pombe; details: average 20 μM; composite Z score cut-off ≧8.53
Procedure: High throughput drug screens were carried out at the Broad Institute's Chemical Biology Program screening facility (Broad Institute, Cambridge, Mass.). Depending upon the strain, cultures were pregrown to exponential phase in EMM complete medium containing from 0.5 to 2.5 mM cAMP to repress fbp1-ura4 transcription. […] Starting cell concentrations ranged from 0.5×10^5 to 4×10^5 cells/ml depending on the screening strain. […] Other positive control dishes contained 5 mM cAMP in the 5FOA medium. Cultures were grown for 48 hours at 30° C., sealed in an airtight container with moist paper towels to prevent evaporation. Optical densities (OD600) of cultures were measured using a microplate reader. Bioinformatic analysis of the results to determine composite Z scores was performed as previously described^30, 31.

[7] = molecular target: T5, Cgs2 (Schizosaccharomyces pombe, UniProt P36599); assay: fbp1-lacZ β-galactosidase assay, Cgs2 strain CHP861; format: cell-based; details: specific activity per milligram of soluble protein, average ± SD
T5 construct: the wild-type S. pombe Cgs2^+ PDE; endogenous in cells; host or cells: Schizosaccharomyces pombe strain CHP861
T5 sequence (P36599 1-346): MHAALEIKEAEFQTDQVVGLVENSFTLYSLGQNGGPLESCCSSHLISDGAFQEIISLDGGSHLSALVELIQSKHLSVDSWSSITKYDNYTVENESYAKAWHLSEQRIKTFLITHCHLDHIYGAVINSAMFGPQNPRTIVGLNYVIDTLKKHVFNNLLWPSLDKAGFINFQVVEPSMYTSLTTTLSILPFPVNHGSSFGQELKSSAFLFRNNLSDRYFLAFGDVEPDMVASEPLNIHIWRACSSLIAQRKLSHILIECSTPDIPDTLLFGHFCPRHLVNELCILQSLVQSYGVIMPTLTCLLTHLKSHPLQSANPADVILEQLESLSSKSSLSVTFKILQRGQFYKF
Procedure: as §1, §3

[8] = molecular target: T4, PDE8A; assay: cAMP assay in yeast strain CHP1141 expressing PDE8A; format: cell-based, murine; details: rolipram 20 and 200 μM, one-hour time point
Procedure: as §1, §2

[9] = test system: PDE4A, PDE4B, PDE4D, PDE7A; assay: Overall PDE inhibitor profile from the yeast assays (table footnotes, summary); format: cell-based
Description: PDE inhibitors were identified using methods described herein, such as high throughput drug screens on genetically engineered fission yeast strains that express drug targets (e.g., PDE4A and/or PDE4B, which are anti-inflammatory targets). PDE inhibitors were identified based on their ability to stimulate growth and compounds were identified because they were effective in live cells. In addition, targets used in the assays are full-length proteins (as opposed to simply the catalytic domain) and the assay used included a built-in toxicity test, permeability test and stability test. The inhibitors identified display a very high degree of target specificity. Compounds identified include inhibitors that act on two of three PDE4 family enzymes and inhibitors that act on combinations of PDE4 and PDE7 strains. […] Limited inhibition of PDE4D by a PDE inhibitor is desirable, in view of the fact that inhibition of PDE4D causes emesis and cardiac arrhythmias. Subtype specificity was confirmed by means of cAMP assays.
Cells were pregrown in EMM medium [MP Biomedicals (Solon, OH), 3% glucose, filter-sterilized to avoid carmelization, which would introduce variability into the optical density of the medium] containing from 0 mM to 2.5 mM cAMP (or either 0.5 mM or 1.0 mM cGMP). This was to repress expression of the fbp1-ura4 reporter prior to exposure of cells to 5FOA medium. Cells were grown at 30° C. to exponential phase (approximately 10^7 cells/ml). Cells were collected by centrifugation and resuspended in 5FOA medium, and 25 μl were transferred to 384-well microtiter dishes (untreated, with flat clear bottoms) that had been pre-filled with 25 μl 5FOA medium and pre-pinned with 100 nl of compounds (stock solutions were generally 10 mM). Starting cell concentrations ranged from 0.5×10^5 to 4×10^5 cells/ml depending on the screening strain. […] Other positive control dishes contained 5 mM cAMP in the 5FOA medium for PDEs that lack appropriate control compounds. Cultures were grown for 48 hours at 30° C., sealed in an airtight container with moist paper towels to prevent evaporation. Optical densities (OD600) of cultures were measured using a microplate reader. Bioinformatic analysis of the results to determine composite Z scores was performed as previously described (1, 3).

[10] = molecular target: T6, PDE7A (Homo sapiens, UniProt Q13946); assay: cAMP assay in yeast strain expressing PDE7A; format: cell-based
T6 construct: targets used in the assays are full-length proteins (as opposed to simply the catalytic domain); expressed in transfected cells; host or cells: Schizosaccharomyces pombe, gene integrated at the cgs2 locus
T6 sequence (Q13946 whole entry, the tested form may be a part): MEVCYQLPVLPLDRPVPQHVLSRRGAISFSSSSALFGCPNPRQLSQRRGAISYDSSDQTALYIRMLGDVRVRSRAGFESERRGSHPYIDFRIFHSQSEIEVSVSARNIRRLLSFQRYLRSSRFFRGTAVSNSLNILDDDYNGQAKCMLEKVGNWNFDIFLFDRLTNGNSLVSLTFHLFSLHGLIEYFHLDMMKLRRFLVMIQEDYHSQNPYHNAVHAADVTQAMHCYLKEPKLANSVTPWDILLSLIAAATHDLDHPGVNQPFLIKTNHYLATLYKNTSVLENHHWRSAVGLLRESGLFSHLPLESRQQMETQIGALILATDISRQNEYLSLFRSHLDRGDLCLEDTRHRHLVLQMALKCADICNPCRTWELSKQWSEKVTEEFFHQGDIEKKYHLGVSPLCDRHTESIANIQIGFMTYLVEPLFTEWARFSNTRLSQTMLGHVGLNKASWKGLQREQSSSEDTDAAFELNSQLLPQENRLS

T1 sequence (Q08499 1-673 isoform Q08499-2): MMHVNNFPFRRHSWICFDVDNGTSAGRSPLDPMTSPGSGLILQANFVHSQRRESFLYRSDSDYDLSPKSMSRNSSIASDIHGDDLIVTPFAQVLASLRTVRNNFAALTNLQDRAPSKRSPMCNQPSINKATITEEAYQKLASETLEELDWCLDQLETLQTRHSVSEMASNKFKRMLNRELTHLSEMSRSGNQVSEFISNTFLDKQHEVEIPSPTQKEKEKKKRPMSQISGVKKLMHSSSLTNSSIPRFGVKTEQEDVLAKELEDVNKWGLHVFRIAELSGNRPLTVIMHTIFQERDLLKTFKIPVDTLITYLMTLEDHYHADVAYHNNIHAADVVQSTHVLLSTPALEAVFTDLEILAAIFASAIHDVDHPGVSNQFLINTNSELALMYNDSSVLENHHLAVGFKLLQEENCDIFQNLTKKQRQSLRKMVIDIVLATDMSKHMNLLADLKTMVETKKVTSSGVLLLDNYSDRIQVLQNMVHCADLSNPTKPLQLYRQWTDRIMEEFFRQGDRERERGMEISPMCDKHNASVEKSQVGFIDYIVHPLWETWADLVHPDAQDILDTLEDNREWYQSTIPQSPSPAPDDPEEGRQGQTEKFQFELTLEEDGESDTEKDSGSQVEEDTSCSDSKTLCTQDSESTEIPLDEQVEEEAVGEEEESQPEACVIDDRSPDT

CC(C)n1c2ccc(Cl)cc2c2nc3ccccc3nc21 [Compound 35]
IC50 [1]: 35 nM | IC50 [2]: 100 nM

CCCCCC[C@@H]([C@@H](C)O)n1cnc2c(N)ncnc21 (racemic) [EHNA, erythro-9-(2-hydroxy-3-nonyl)adenine]
PDE2A inhibition judged by cAMP levels [3]: partial inhibition | β-galactosidase activity, PDE2A strain ([4]; 5 μM EHNA): 473 ± 19 | β-galactosidase activity, PDE2A strain ([4]; 20 μM EHNA): 197 ± 51 | β-galactosidase activity, PDE2A strain ([4]; 200 μM EHNA): 45 ± 3

OCCN(CCO)c1nc(N2CCCCC2)c2nc(N(CCO)CCO)nc(N3CCCCC3)c2n1 [dipyridamole]
Inhibition of PDE8A in yeast ([5]; possibly a permeability problem in the yeast): not able to be inhibited

COc1c2ccoc2cc2oc(C)cc(=O)c12 [visnagin]
Result in high throughput screens for 5FOA-resistant growth [6]: identified

COc1c2occc2c(OC)c2c(=O)cc(C)oc12 [khellin]
Result in high throughput screens for 5FOA-resistant growth [6]: identified

COc1ccc(C2CNC(=O)C2)cc1OC1CCCC1 (stereo not drawn) [Rolipram, rolipram]
β-galactosidase activity, Cgs2 strain ([7]; 50 μM Rolipram): 1807 ± 446 | β-galactosidase activity, Cgs2 strain ([7]; 100 μM Rolipram): 1784 ± 429 | Result in high throughput screens for 5FOA-resistant growth [6]: only affected the PDE4A- and PDE4B-expressing strains | β-galactosidase activity, PDE8A strain ([5]; 50 μM Rolipram): 253 ± 46 | β-galactosidase activity, PDE8A strain ([5]; 100 μM Rolipram): 237 ± 67 | cAMP levels in PDE8A strain on treatment [8]: completely insensitive

COc1ccc2c(c1)C1(C)CCC(=O)CC1CC2 (single isomer, unassigned) [Compound 11]
PDE inhibitor profile in words (table footnote / summary) [9]: (3) Strong PDE7A inhibitor | cAMP Response (%BRL50481), PDE 7A [10]: 89.00 %BRL50481

Cc1cc2cc3c(C)cc(=O)oc3c(C)c2o1 [trioxsalen]
Result in high throughput screens for 5FOA-resistant growth [6]: identified
